Data: article PMC11802874, “The hypolipidemic effect of MI-883, the combined CAR agonist/ PXR antagonist, in diet-induced hypercholesterolemia model” (Nature Communications, 2025)
“And” between values parts separate entries of the source, which are not always exact repeats. Equal values may be shown once.

Columns and labels:
[1] = test system: humanized PXR-CAR-CYP3A4/3A7 mice; experiment: Hepatic induction study in humanized PXR-CAR-CYP3A4/3A7 mice (i.p.); type: in vivo, mouse
Excerpt: In the induction experiments, […] was sampled from the gallbladder.

[2] = test system: humanized PXR-CAR-CYP3A4/3A7 mice; experiment: Glucose homeostasis: IPGTT, IPITT, glycemia, insulin (HFD study); type: in vivo, mouse; design: insulinemia: unit not given here
Protocol: Intraperitoneal glucose tolerance test (IPGTT) and Intraperitoneal Insulin Tolerance Test (IPITT) assays were performed one week before the end of the HFD study. For IPGTT, mice fasted for 18 h were intraperitoneally injected with 20% D-glucose solution (2 g/kg BW). Blood was sampled before the injection and 15, 30, 60, and 120 min after. For the IPITT assay, mice fasted for 4 h were administered with 0.75 IU insulin/kg BW. Blood was sampled before the injection and 15, 30, 45, 60, and 90 min after.

[3] = Stability in mouse plasma; type: in vitro ADME; details: read-out: Stability in mouse plasma, t1/2
Excerpt: Plasma protein binding, and stability in human and mouse plasma have been tested as previously described.

[4] = Repeated dose 28-day oral toxicity study in rats (OECD 407, non-GLP); type: in vivo; details: rat, in vivo, 10 mg/kg; 28 days per os, rats
Protocol: (§1) A repeated dose 28-day oral toxicity study in Rats (Non–GLP Study) was carried out according to OECD Guideline for Testing of Chemicals No. 407 and relevant Test Facility SOPs at the Institute of Physiology, Academy of Sciences, Czech Republic as a service. The report is available after request. […] No clinical changes were observed during the administration period or the recovery period in the two selected groups. […]

[5] = test system: rats; experiment: as above; type: in vivo; details: up to 10 mg/kg
Protocol: as §1

[6] = Chemical stability (shelf, DMSO stock) and solubility in solvents; type: physicochemical
Excerpt: 1. Biological half-life was investigated. But is MI-883 stable on the shelf? […]
Our medicinal chemistry team analyzed the MI-883 sample that had been stored on the lab bench at […]
compared to the freshly prepared sample (see Figure R1).
In addition, the compound is stable for at least two years in dimethyl sulfoxide (DMSO) as we confirm using published protocols 1,2(see data in Table R1).
Table 1: LC/MS data for MI-883 stability in DMSO solution
Study protocol: Stability of MI-883 stock solution in DMSO after two years at -20°C A 10 mM solution of MI-883 was prepared in DMSO and divided into multiple aliquots in 2 mL cryovials.
The samples were stored at -20°C for two years in a standard laboratory freezer. Mass spectrometric analysis was conducted using LC/MS (Sciex QTRAP 7500). Stability was determined based on three independently prepared 1 µM solutions from stored stock.
DMSO stock solution at -20°C over two years. However, for critical pharmaceutical use, additional studies at different temperatures and under varied conditions (e.g., light exposure, humidity) may be necessary to fully assess long-term stability. […]
We used several computational prediction tools to determine water […]
μg/mL (0.9 μM) and 0.2 μg/mL (0.4 μM). Using QikProp tool (Schrödinger software package), the […]
According to the ADMET Predictor software package […]
predictions align with our observations and confirm the poor water solubility of MI-883, although we […]
The compound is well soluble in methanol and can dissolve in ethanol up to a concentration of 30 mM. […]

[7] = target: VD (Homo sapiens, UniProt P11473); experiment: Luciferase reporter gene assay VD receptor, HepG2
Sequence of VD (P11473 127-423 limits assumed): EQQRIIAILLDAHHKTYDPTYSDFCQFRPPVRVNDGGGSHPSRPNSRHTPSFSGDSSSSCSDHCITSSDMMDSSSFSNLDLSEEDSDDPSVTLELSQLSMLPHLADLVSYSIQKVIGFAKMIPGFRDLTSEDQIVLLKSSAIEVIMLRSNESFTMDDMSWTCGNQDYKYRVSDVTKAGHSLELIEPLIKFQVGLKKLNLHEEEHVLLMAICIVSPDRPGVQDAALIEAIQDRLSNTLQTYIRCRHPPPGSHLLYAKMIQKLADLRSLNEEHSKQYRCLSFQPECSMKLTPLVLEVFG
Excerpt: (§2) The luciferase reporter gene assays for FXR, LXRα, LXRβ, THα, GRα, PPARα, PPARδ/β, PPARγ, AhR, VD, ERα, ERβ and mouse Car are described in our recent paper[19]
(§3) Gal4-LBD constructs of tested nuclear receptors have been used together with pGL4.31[luc2P/GAL4UAS/Hygro] luciferase reporter construct and pRL-TK Renilla expression vector (both from Promega, Hercules, USA) in HepG2 cells transfected with Lipofectamine 2000 or 3000 reagents. For GRα and FXR receptors, full-length expression vectors have been used with pGRE-luc or pFXRE-luc luciferase constructs. For the aryl hydrocarbon receptor (AhR), p1A1-luc construct was used with only pRL-TK vector for transfection normalization. A dual reporter assay (Promega, Hercules, USA) was used to analyze both firefly and Renilla luciferase activities.
(§4) Gal4-LBD constructs of tested nuclear receptors have been used together with pGL5-luc luciferase reporter construct and pRL-TK Renilla expression vector in HepG2 cells transfected with Lipofectamine 2000 or 3000 reagents. For GRα and FXR receptors, full-length expression vectors have been used with pGRE-luc or pFXRE-luc luciferase constructs. For the aryl hydrocarbon receptor (AhR), p1A1-luc construct was used with only pRL-TK vector for transfection normalization. […] Bars represent means±S.D. (n=3).

[8] = target: aryl hydrocarbon receptor (AhR) (Homo sapiens, UniProt P35869); experiment: Luciferase reporter gene assay AhR (p1A1-luc), HepG2
Sequence of aryl hydrocarbon receptor (AhR) (P35869 11-848): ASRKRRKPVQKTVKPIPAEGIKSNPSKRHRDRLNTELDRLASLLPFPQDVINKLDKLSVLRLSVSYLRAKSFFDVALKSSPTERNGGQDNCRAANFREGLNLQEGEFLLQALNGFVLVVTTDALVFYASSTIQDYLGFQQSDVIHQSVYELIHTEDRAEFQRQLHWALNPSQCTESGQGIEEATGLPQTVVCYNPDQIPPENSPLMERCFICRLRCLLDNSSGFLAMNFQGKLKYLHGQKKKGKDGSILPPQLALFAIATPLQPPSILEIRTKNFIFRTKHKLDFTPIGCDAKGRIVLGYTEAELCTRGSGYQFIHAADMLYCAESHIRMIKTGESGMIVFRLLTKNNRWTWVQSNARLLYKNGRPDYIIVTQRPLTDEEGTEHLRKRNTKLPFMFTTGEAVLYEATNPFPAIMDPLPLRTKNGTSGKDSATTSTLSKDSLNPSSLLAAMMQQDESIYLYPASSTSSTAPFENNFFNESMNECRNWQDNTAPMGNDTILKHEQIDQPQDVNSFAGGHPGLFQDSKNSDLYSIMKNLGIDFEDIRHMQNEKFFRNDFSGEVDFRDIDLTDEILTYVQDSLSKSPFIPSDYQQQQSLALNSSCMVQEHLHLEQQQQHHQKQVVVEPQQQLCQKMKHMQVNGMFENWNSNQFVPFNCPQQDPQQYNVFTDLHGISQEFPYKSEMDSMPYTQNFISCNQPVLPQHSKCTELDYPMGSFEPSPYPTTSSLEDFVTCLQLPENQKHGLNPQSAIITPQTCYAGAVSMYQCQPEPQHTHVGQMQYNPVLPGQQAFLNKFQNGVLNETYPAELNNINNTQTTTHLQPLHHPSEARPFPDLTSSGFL
Excerpt: as §2, §3, §4

[9] = test system: HepaRG cells; experiment: RT-qPCR mRNA expression in differentiated HepaRG cells
[10] = single agents i.p.: Rif 3×5 mg/kg, CITCO 10 mg/kg two doses, MI-883 10 mg/kg 3 days

Q: Which results are given for `NC(=O)c1cc(Cn2cc(-c3c(-c4ccc(Cl)cc4)nc4cc(F)ccn34)nn2)ccc1Cl` [MI-883, 2-chloro-5-((4-(2-(4-chlorophenyl)-7-fluoroimidazo[1,2-a]pyridin-3-yl)-1H-1,2,3-triazol-1-yl)methyl)benzamide]?
A: fold mRNA induction CYP3A4 in livers of humanized PXR-CAR-CYP3A mice ([1]; MI-883 10 mg/kg i.p. 3 days, not significant): 1.9 fold; hepatic CYP3A4 mRNA, hPXR/hCAR/CYP3A4/7 mice (Fig. 3e), individual animals ([1]; Rif + MI-883 combination i.p.): 15.1375 and 21.1204 and 7.333 and 13.3527; hepatic Cyp2b10 mRNA, hPXR/hCAR/CYP3A4/7 mice (Fig. 3e), individual animals ([1]; Rif + MI-883 combination i.p.): 37.4609 and 22.8189 and 29.2533 and 22.0407; hepatic CYP3A4 mRNA, hPXR/hCAR/CYP3A4/7 mice (Fig. 3e), individual animals [1, 10]: 2.527 and 2.124 and 1.135; hepatic Cyp2b10 mRNA, hPXR/hCAR/CYP3A4/7 mice (Fig. 3e), individual animals [1, 10]: 5.955 and 3.722 and 12.2143; Cyp2b10 mRNA in the liver, preliminary studies ([1]; single dose of 5 mg/kg in oral gavage): significant induction; insulinemia ([2]; HFD study): no effect; postprandial glucose concentrations in IPGTT or IPITT ([2]; HFD study): did not significantly decrease; plasma glucose levels ([2]; both studies): no effect; half-life [3]: > 2 h; NOAEL at 28 days [4]: > 10 mg/kg; toxicity in 28-day oral study in rats [5]: no toxicity; toxicity in 28-day oral study in rats ([5]; listed as MI833): No clinical signs of toxicity; solubility in methanol [6]: well soluble; LC/MS concentration of 1 µM solution from DMSO stock ([6]; 2 year at -20°C in DMSO): 1.007 µM; decomposition on the lab bench at room temperature ([6]; 6 months, HPLC/MS): no significant decomposition; water solubility ([6]; not experimentally determined): low water solubility; LC/MS concentration of 1 µM solution from DMSO stock ([6]; time 0): 1.012 µM; NRs assays: VDR (relative to ctrl, replicates) [7]: 0.7 and 0.81 and 0.9; NRs assays: AhR (relative to ctrl, replicates) [8]: 0.69 and 0.85 and 0.64; INSIG1 mRNA in HepaRG cells [9]: significantly upregulated; LDLR mRNA in HepaRG cells [9]: significant PXR-dependent upregulation; SREBF1 mRNA expression in HepaRG / KO cells [9]: CAR-dependent downregulation; SREBF2 mRNA expression in HepaRG cells [9]: no significant effect; HMGCR expression relative to control (replicates) ([9]; MI-883 1 μM): 0.8473 and 0.6697 and 1.095 and 1.161 and 1.262 and 0.6816; HMGCS2 expression relative to control (replicates) ([9]; MI-883 1 μM): 0.9842 and 0.7188 and 1.1212 and 1.322; PCSK9 expression relative to control (replicates) ([9]; MI-883 1 μM): 0.9984 and 0.8995 and 1.064 and 1.124; HMGCR expression relative to control (replicates) ([9]; MI-883 1 μM + Rif (5 μM)): 1.453 and 0.9465 and 0.9544 and 1.191 and 1.542 and 0.8007; HMGCS2 expression relative to control (replicates) ([9]; MI-883 1 μM + Rif (5 μM)): 0.681 and 1.013 and 0.6433 and 0.4816; PCSK9 expression relative to control (replicates) ([9]; MI-883 1 μM + Rif (5 μM)): 0.8085 and 0.8006 and 1.133 and 0.9198; HMGCR expression relative to control (replicates) ([9]; MI-883 5 μM): 1.295 and 1.166 and 1.377 and 1.27 and 0.8404; HMGCS2 expression relative to control (replicates) ([9]; MI-883 5 μM): 0.5911 and 1.022; PCSK9 expression relative to control (replicates) ([9]; MI-883 5 μM): 0.6066 and 1.012; HMGCR expression relative to control (replicates) ([9]; MI-883 5 μM + Rif (5 μM)): 1.005 and 1.538 and 1.592 and 1.152 and 1.312; HMGCS2 expression relative to control (replicates) ([9]; MI-883 5 μM + Rif (5 μM)): 0.8846 and 0.5305; PCSK9 expression relative to control (replicates) ([9]; MI-883 5 μM + Rif (5 μM)): 1.035 and 0.636; HMGCR expression relative to control (replicates) ([9]; MI-883 10 μM): 1.683 and 0.9974 and 1.042 and 1.481; HMGCS2 expression relative to control (replicates) ([9]; MI-883 10 μM): 0.4009 and 0.6268 and 0.831 and 0.8846; PCSK9 expression relative to control (replicates) ([9]; MI-883 10 μM): 0.6175 and 0.9465 and 1.014 and 0.9985; HMGCR expression relative to control (replicates) ([9]; MI-883 10 μM + Rif (5 μM)): 1.336 and 1.4868 and 1.027 and 1.993; HMGCS2 expression relative to control (replicates) ([9]; MI-883 10 μM + Rif (5 μM)): 0.9594 and 1.125 and 0.477 and 0.8873; PCSK9 expression relative to control (replicates) ([9]; MI-883 10 μM + Rif (5 μM)): 1.314 and 0.9884 and 1.015 and 0.8211; HMGCR expression relative to control (replicates) ([9]; MI-883 20 μM): 1.186 and 1.442 and 1.1738; HMGCS2 expression relative to control (replicates) ([9]; MI-883 20 μM): 0.7901 and 0.8336 and 1.102; PCSK9 expression relative to control (replicates) ([9]; MI-883 20 μM): 0.9308 and 1.156 and 1.11
